PubChem BioAssay AID1918937 (Molecular Pharmacology Branch, DTP, NCI, 2023)

System: 521955-158-R2-J5-PDC complex spheroid viability
Assay: Anticancer human tumor 521955-158-R2-J5-PDC patient-derived pancreatic carcinoma cell line growth inhibition
Settings: for IC50: curve of first compound; for viability, T/C: stronger effect = lower value; active = viability on the fitted dose curve at most 10% of control; inactive = the rest
Procedure, shortened: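 Complex spheroids of tumor cells with HUVEC and human MSCs, exposed to iadademstat combined with other agents. Each agent tested in half-log steps from near clinical Cmax (else 10 microM top), DMSO ≤0.25%.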

[1] = second compound 0.1 µM, first compound 0.0316 µM
[2] = second compound 0.1 µM, first compound 0.1 µM
[3] = second compound 0.1 µM, first compound 0.316 µM
[4] = second compound 0.1 µM, first compound 1 µM
[5] = second compound 0.1 µM, first compound 3.16 µM
[6] = second compound 0.1 µM, first compound 10 µM
[7] = second compound 0.316 µM, first compound 0.0316 µM
[8] = second compound 0.316 µM, first compound 0.1 µM
[9] = second compound 0.316 µM, first compound 0.316 µM
[10] = second compound 0.316 µM, first compound 1 µM
[11] = second compound 0.316 µM, first compound 3.16 µM
[12] = second compound 0.316 µM, first compound 10 µM
[13] = second compound 1 µM, first compound 0.0316 µM
[14] = second compound 1 µM, first compound 0.1 µM
[15] = second compound 1 µM, first compound 0.316 µM
[16] = second compound 1 µM, first compound 1 µM
[17] = second compound 1 µM, first compound 3.16 µM
[18] = second compound 1 µM, first compound 10 µM
[19] = second compound 3.16 µM, first compound 0.0316 µM
[20] = second compound 3.16 µM, first compound 0.1 µM
[21] = second compound 3.16 µM, first compound 0.316 µM
[22] = second compound 3.16 µM, first compound 1 µM
[23] = second compound 3.16 µM, first compound 3.16 µM
[24] = second compound 3.16 µM, first compound 10 µM
[25] = second compound 10 µM, first compound 0.0316 µM
[26] = second compound 10 µM, first compound 0.1 µM
[27] = second compound 10 µM, first compound 0.316 µM
[28] = second compound 10 µM, first compound 1 µM
[29] = second compound 10 µM, first compound 3.16 µM
[30] = second compound 10 µM, first compound 10 µM
[31] = second compound 0.1 µM, first compound 0.00949 µM
[32] = second compound 0.1 µM, first compound 0.03 µM
[33] = second compound 0.1 µM, first compound 0.0949 µM
[34] = second compound 0.1 µM, first compound 0.3 µM
[35] = second compound 0.316 µM, first compound 0.00949 µM
[36] = second compound 0.316 µM, first compound 0.03 µM
[37] = second compound 0.316 µM, first compound 0.0949 µM
[38] = second compound 0.316 µM, first compound 0.3 µM
[39] = second compound 1 µM, first compound 0.00949 µM
[40] = second compound 1 µM, first compound 0.03 µM
[41] = second compound 1 µM, first compound 0.0949 µM
[42] = second compound 1 µM, first compound 0.3 µM
[43] = second compound 3.16 µM, first compound 0.00949 µM
[44] = second compound 3.16 µM, first compound 0.03 µM
[45] = second compound 3.16 µM, first compound 0.0949 µM
[46] = second compound 3.16 µM, first compound 0.3 µM
[47] = second compound 10 µM, first compound 0.00949 µM
[48] = second compound 10 µM, first compound 0.03 µM
[49] = second compound 10 µM, first compound 0.0949 µM
[50] = second compound 10 µM, first compound 0.3 µM
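Also: spheroids exposed to agents for seven days.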
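For viability, T/C in this document: percent of DMSO vehicle control luminescence viability.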

CC1(C)CCC(CN2CCN(c3ccc(C(=O)NS(=O)(=O)c4ccc(NCC5CCOCC5)c([N+](=O)[O-])c4)c(Oc4cnc5[nH]ccc5c4)c3)CC2)=C(c2ccc(Cl)cc2)C1 + NC1CCC(NC2CC2c2ccccc2)CC1
3790 nM: IC50 (second compound 10 µM)
4200 nM: IC50 (second compound 0.1 µM)
inactive: viability, T/C [1] 109% | viability, T/C [2] 116% | viability, T/C [3] 112% | viability, T/C [4] 109% | viability, T/C [5] 66.1% | viability, T/C [7] 119% | viability, T/C [8] 113% | viability, T/C [9] 116% | viability, T/C [10] 111% | viability, T/C [11] 59.5% | viability, T/C [13] 108% | viability, T/C [14] 105% | viability, T/C [15] 108% | viability, T/C [16] 103% | viability, T/C [17] 58.8% | viability, T/C [19] 116% | viability, T/C [20] 124% | viability, T/C [21] 111% | viability, T/C [22] 109% | viability, T/C [23] 49% | viability, T/C [25] 119% | viability, T/C [26] 117% | viability, T/C [27] 117% | viability, T/C [28] 115% | viability, T/C [29] 59.1%
active: viability, T/C [6] 0.51% | viability, T/C [12] 0.64% | viability, T/C [18] 0.9% | viability, T/C [24] 0.91% | viability, T/C [30] 0.85%
3770 nM: IC50 (second compound 1 µM)
3810 nM: IC50 (second compound 0.316 µM)
3110 nM: IC50 (second compound 3.16 µM)

CC1COCCN1c1cc(C2(S(C)(=N)=O)CC2)nc(-c2ccnc3[nH]ccc23)n1 (stereo not given) + NC1CCC(NC2CC2c2ccccc2)CC1
505 nM: IC50 (second compound 0.316 µM)
446 nM: IC50 (second compound 10 µM)
531 nM: IC50 (second compound 1 µM)
528 nM: IC50 (second compound 0.1 µM)
500 nM: IC50 (second compound 3.16 µM)
inactive: viability, T/C [1] 104% | viability, T/C [2] 87.7% | viability, T/C [3] 76.6% | viability, T/C [4] 16.5% | viability, T/C [5] 12.6% | viability, T/C [6] 16.9% | viability, T/C [7] 88.7% | viability, T/C [8] 82.8% | viability, T/C [9] 71% | viability, T/C [10] 19.3% | viability, T/C [11] 13.2% | viability, T/C [12] 16.1% | viability, T/C [13] 79.7% | viability, T/C [14] 90.3% | viability, T/C [15] 74.7% | viability, T/C [16] 19.8% | viability, T/C [17] 12.3% | viability, T/C [18] 15.3% | viability, T/C [19] 97.6% | viability, T/C [20] 93.9% | viability, T/C [21] 71.5% | viability, T/C [22] 17.6% | viability, T/C [23] 11.3% | viability, T/C [24] 14.8% | viability, T/C [25] 85% | viability, T/C [26] 81.6% | viability, T/C [27] 64.4% | viability, T/C [28] 16.2% | viability, T/C [29] 12.3% | viability, T/C [30] 16.7%

CCN(c1cc(-c2ccc(CN3CCOCC3)cc2)cc(C(=O)NCc2c(C)cc(C)[nH]c2=O)c1C)C1CCOCC1 + NC1CCC(NC2CC2c2ccccc2)CC1
2560 nM: IC50 (second compound 0.316 µM)
1490 nM: IC50 (second compound 10 µM)
> 3000 nM: IC50 (second compound 0.1 µM)
1730 nM: IC50 (second compound 3.16 µM)
1880 nM: IC50 (second compound 1 µM)
inactive: viability, T/C [31] 105% | viability, T/C [32] 105% | viability, T/C [33] 94.4% | viability, T/C [34] 83.3% | viability, T/C (second compound 0.1 µM, first compound 0.949 µM) 64.6% | viability, T/C (second compound 0.1 µM, first compound 3 µM) 51% | viability, T/C [35] 103% | viability, T/C [36] 99.1% | viability, T/C [37] 95.8% | viability, T/C [38] 78.2% | viability, T/C (second compound 0.316 µM, first compound 0.949 µM) 71% | viability, T/C (second compound 0.316 µM, first compound 3 µM) 46.3% | viability, T/C [39] 103% | viability, T/C [40] 99.8% | viability, T/C [41] 93.7% | viability, T/C [42] 79% | viability, T/C (second compound 1 µM, first compound 0.949 µM) 66% | viability, T/C (second compound 1 µM, first compound 3 µM) 39.5% | viability, T/C [43] 96.8% | viability, T/C [44] 103% | viability, T/C [45] 96.3% | viability, T/C [46] 82.8% | viability, T/C (second compound 3.16 µM, first compound 0.949 µM) 66.6% | viability, T/C (second compound 3.16 µM, first compound 3 µM) 35.7% | viability, T/C [47] 103% | viability, T/C [48] 101% | viability, T/C [49] 94.6% | viability, T/C [50] 83.8% | viability, T/C (second compound 10 µM, first compound 0.949 µM) 59.6% | viability, T/C (second compound 10 µM, first compound 3 µM) 34.8%

Nc1ncn(C2CC(O)C(CO)S2)c(=O)n1 (stereo not given) + NC1CCC(NC2CC2c2ccccc2)CC1
> 300 nM: IC50 (second compound 0.1 µM) | IC50 (second compound 0.316 µM) | IC50 (second compound 1 µM) | IC50 (second compound 3.16 µM) | IC50 (second compound 10 µM)
inactive: viability, T/C (second compound 0.1 µM, first compound 0.000949 µM) 92.9% | viability, T/C (second compound 0.1 µM, first compound 0.003 µM) 91% | viability, T/C [31] 88.3% | viability, T/C [32] 79.8% | viability, T/C [33] 75.6% | viability, T/C [34] 57.3% | viability, T/C (second compound 0.316 µM, first compound 0.000949 µM) 95.9% | viability, T/C (second compound 0.316 µM, first compound 0.003 µM) 92.2% | viability, T/C [35] 88.9% | viability, T/C [36] 84.6% | viability, T/C [37] 70.3% | viability, T/C [38] 51.5% | viability, T/C (second compound 1 µM, first compound 0.000949 µM) 92.5% | viability, T/C (second compound 1 µM, first compound 0.003 µM) 87% | viability, T/C [39] 93.7% | viability, T/C [40] 82.8% | viability, T/C [41] 77.8% | viability, T/C [42] 56.5% | viability, T/C (second compound 3.16 µM, first compound 0.000949 µM) 103% | viability, T/C (second compound 3.16 µM, first compound 0.003 µM) 110% | viability, T/C [43] 91.7% | viability, T/C [44] 88.1% | viability, T/C [45] 76.6% | viability, T/C [46] 52.7% | viability, T/C (second compound 10 µM, first compound 0.000949 µM) 93.6% | viability, T/C (second compound 10 µM, first compound 0.003 µM) 94.9% | viability, T/C [47] 98% | viability, T/C [48] 82.8% | viability, T/C [49] 77.4% | viability, T/C [50] 54.9%
